Measurements: patent US20200031848A1, “AR-V7 INHIBITORS” (Hoffmann-La Roche Inc., priority 2016, published 2020)

Columns and labels:
[1] = molecular target: T1, AR transcriptional activity (Homo sapiens, UniProt P10275, T878A); experiment: eGFP cellular AR transcription assay; assay type: cell-based; conditions: for IC50 / eGFP IC50: LNCaP eGFP cell line; for inhibition at 1 µM: read-out: eGFP % inhib. at 1 μM
T1 construct: The LNCaP eGFP cell line was stably transfected with an androgen-responsive probasin-derived promoter fused to an eGFP reporter; endogenous in cells; host or cells: LNCaP eGFP (LN-ARR2PB-eGFP) human prostate cancer cells
T1 sequence (P10275 1-920 T878A): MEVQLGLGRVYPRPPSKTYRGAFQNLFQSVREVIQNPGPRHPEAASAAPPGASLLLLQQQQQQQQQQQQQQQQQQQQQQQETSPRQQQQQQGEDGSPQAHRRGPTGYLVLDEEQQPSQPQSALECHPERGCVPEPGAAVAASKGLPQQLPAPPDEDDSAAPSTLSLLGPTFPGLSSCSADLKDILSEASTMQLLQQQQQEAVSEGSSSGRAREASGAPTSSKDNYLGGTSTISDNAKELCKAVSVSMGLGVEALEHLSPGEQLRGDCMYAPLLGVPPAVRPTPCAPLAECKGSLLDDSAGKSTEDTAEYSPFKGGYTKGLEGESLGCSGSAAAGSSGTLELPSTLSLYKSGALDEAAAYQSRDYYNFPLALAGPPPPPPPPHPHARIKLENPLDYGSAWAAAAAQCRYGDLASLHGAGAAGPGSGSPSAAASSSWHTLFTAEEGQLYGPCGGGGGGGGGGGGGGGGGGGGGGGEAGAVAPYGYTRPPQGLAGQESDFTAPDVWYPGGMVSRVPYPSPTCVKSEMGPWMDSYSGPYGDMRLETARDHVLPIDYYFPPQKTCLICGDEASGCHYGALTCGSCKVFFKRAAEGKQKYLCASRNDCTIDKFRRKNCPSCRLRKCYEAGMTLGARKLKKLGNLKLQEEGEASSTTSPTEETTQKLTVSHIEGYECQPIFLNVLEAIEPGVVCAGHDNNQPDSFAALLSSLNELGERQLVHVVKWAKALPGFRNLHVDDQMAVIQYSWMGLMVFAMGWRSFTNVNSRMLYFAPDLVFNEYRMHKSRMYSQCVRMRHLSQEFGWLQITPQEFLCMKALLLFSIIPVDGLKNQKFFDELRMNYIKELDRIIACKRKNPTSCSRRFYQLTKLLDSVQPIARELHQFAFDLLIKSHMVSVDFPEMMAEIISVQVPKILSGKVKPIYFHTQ
Source text: The DNA-binding domain is an attractive target for inhibition of AR dimerization and/or DNA binding. In silico computational drug discovery methods were used to conduct a virtual screen of >3 million purchasable lead-like compounds from the ZINC database (Irwin, J. et al.^11) to identify potential DBD binders. The in silico methods included large-scale docking, in-site rescoring and consensus voting procedures. It will be understood by a person of skill that COOH and NR2 may include the corresponding ions, for example carboxylate ions and ammonium ions, respectively. Alternatively, where the ions are shown, a person of skill in the art will appreciate that the counter ion may also be present. Furthermore, it will be appreciated by a person of skill that other moieties may include the corresponding ions, and where the ions are shown, a person of skill in the art will appreciate that the counter ion may also be present. […] Where the % inhibition, eGFP IC50 or the PSA IC50 has no value given, this may be because no measurement was taken or the value was not calculated, in the case of the % inhibition. In vitro identification of AR inhibitors targeting AR DBD The selected compounds were assessed with a non-destructive eGFP assay that quantifies levels of AR transcriptional activity, were identified (table below).
1. Cell Culture: LNCaP and PC3 human prostate cancer cells were obtained from American Type Culture Collection (ATCC, Manassas, Va.) and grown in RPMI 1640 medium supplemented with 5% fetal bovine serum (FBS) (Invitrogen). The LNCaP eGFP cell line was stably transfected with an androgen-responsive probasin-derived promoter fused to an eGFP reporter (LN-ARR2PB-eGFP) using a lentiviral approach, and were grown in phenol-red-free RPMI 1640 supplemented with 5% CSS. In-house developed MDV3100-resistant LNCaP cells were cultured in RPMI 1640 supplemented with 5% FBS and 10 μM MDV3100. All cells were maintained at 37° C. in 5% CO2.
2. eGFP cellular AR transcription assay: The AR transcriptional activity was assayed as previously described (Tavassoli, P., et al.^12).

in vitro = conditions: human, microsomes, pH 7.4
Method: Microsomal incubations were carried out in 96-well plates in 5 aliquots of 40 μL each (one for each time point). […] Control incubations were performed replacing the NADPH-cofactor system with PBS. […] Incubations were performed in duplicates. Five time points over 40 minutes had been analyzed. The reactions were stopped by adding 12 volumes of 90% acetonitrile-water to incubation aliquots, followed by protein sedimentation by centrifuging at 5500 rpm for 5 minutes. Supernatants were analyzed using the HPLC system coupled with tandem mass spectrometer. The elimination constant (kel), half-life (t1/2) and intrinsic clearance (Clint) were determined in plot of […] versus time, using linear regression analysis: […]

IC50 [1]	microsomal CLint at 2 μM (in vitro)	Structure (SMILES)	further results
1610 nM		Brc1cn(-c2csc(N3CC4CC3CO4)n2)c(Br)n1 (centres unmarked) [Example 27, 5-[4-(2,4-dibromoimidazol-1-yl)thiazol-2-yl]-2-oxa-5-azabicyclo[2.2.1]heptane]	
27400 nM		Brc1cn(-c2csc(N3CCOC(Cc4ccccc4)C3)n2)c(Br)n1 (centres unmarked) [Example 32, 2-benzyl-4-[4-(2,4-dibromoimidazol-1-yl)thiazol-2-yl]morpholine]	
170 nM		Brc1cn(-c2csc(N3CCOC(c4cccs4)C3)n2)c(Br)n1 (centres unmarked) [Example 33, 4-[4-(2,4-dibromoimidazol-1-yl)thiazol-2-yl]-2-(2-thienyl)morpholine]	
250 nM	40 µL/min/mg	Clc1ncn(-c2csc(N3C[C@H]4CC[C@@H](C3)O4)n2)c1Cl [Example 20, (1S,5R)-3-[4-(4,5-dichloroimidazol-1-yl)thiazol-2-yl]-8-oxa-3-azabicyclo[3.2.1]octane]	
8150 nM		Brc1cn(-c2csc(N3CCOC(c4ccccc4)C3)n2)c(Br)n1 (centres unmarked) [Example 31, 4-[4-(2,4-dibromoimidazol-1-yl)thiazol-2-yl]-2-phenyl-morpholine]	
1600 nM		N#Cc1nc(Br)cn1-c1csc(N2CCOCC2)n1 [Example 51, 4-bromo-1-(2-morpholinothiazol-4-yl)imidazole-2-carbonitrile]	
970 nM		Clc1cn(-c2csc(N3CCOCC3)n2)cn1 [Example 47, 4-[4-(4-chloroimidazol-1-yl)thiazol-2-yl]morpholine]	
	81 µL/min/mg	Brc1cn(-c2csc(N3CCOCC3)n2)cn1 [Example 48, 4-[4-(4-bromoimidazol-1-yl)thiazol-2-yl]morpholine]	
	72 µL/min/mg	Cc1c(Br)ncn1-c1csc(N2CCOCC2)n1 [Example 53, 4-[4-(4-bromo-5-methyl-imidazol-1-yl)thiazol-2-yl]morpholine]	inhibition at 1 µM [1]: 44%
	42 µL/min/mg	Brc1nccn1-c1csc(N2CCOCC2)n1 [Example 59, 4-[4-(2-bromoimidazol-1-yl)thiazol-2-yl]morpholine]	inhibition at 1 µM [1]: 35%
	19 µL/min/mg	OCc1ncn(-c2csc(N3CCOCC3)n2)c1Br [Example 62, [5-bromo-1-(2-morpholinothiazol-4-yl)imidazol-4-yl]methanol]	eGFP IC50 [1]: inact.
	33 µL/min/mg	CCOC(=O)c1nc(Br)c(Br)n1-c1csc(N2CCOCC2)n1 [Example 56, ethyl 4,5-dibromo-1-(2-morpholinothiazol-4-yl)imidazole-2-carboxylate]	inhibition at 1 µM [1]: 12%
130 nM	51 µL/min/mg	CCC1COCCN1c1nc(-n2cc(Br)nc2Br)cs1 (centres unmarked) [Example 15, 4-[4-(2,4-dibromoimidazol-1-yl)thiazol-2-yl]-3-ethyl-morpholine]	
190 nM	41 µL/min/mg	CC1CN(c2nc(-n3cc(Br)nc3Br)cs2)C(C)CO1 (centres unmarked) [Example 17, 4-[4-(2,4-dibromoimidazol-1-yl)thiazol-2-yl]-2,5-dimethyl-morpholine]	
1320 nM		Brc1ncn(-c2csc(N3C[C@@H]4C[C@H]3CO4)n2)c1Br [Example 12, (1S,4S)-5-[4-(4,5-dibromoimidazol-1-yl)thiazol-2-yl]-2-oxa-5-azabicyclo[2.2.1]heptane]	
6650 nM		CC(C)C1CN(c2nc(-n3cc(Br)nc3Br)cs2)CCO1 (centres unmarked) [Example 30, 4-[4-(2,4-dibromoimidazol-1-yl)thiazol-2-yl]-2-isopropyl-morpholine]	
1180 nM		Brc1cn(-c2csc(N3C[C@@H]4C[C@H]3CO4)n2)c(Br)n1 [Example 11, (1S,4S)-5-[4-(2,4-dibromoimidazol-1-yl)thiazol-2-yl]-2-oxa-5-azabicyclo[2.2.1]heptane]	
3150 nM		Brc1cn(-c2csc(N3CCOC4CCCCC43)n2)c(Br)n1 (centres unmarked) [Example 29, 4-[4-(2,4-dibromoimidazol-1-yl)thiazol-2-yl]-2,3,4a,5,6,7,8,8a-octahydrobenzo[b][1,4]oxazine]	
3120 nM		Brc1cn(-c2csc(N3CCOC4(CCOCC4)C3)n2)c(Br)n1 [Example 28, 4-[4-(2,4-dibromoimidazol-1-yl)thiazol-2-yl]-1,9-dioxa-4-azaspiro[5.5]undecane]	
	185 µL/min/mg	Clc1c(Br)ncn1-c1csc(N2CCOCC2)n1 [Example 45, 4-[4-(4-bromo-5-chloro-imidazol-1-yl)thiazol-2-yl]morpholine]	
120 nM		Brc1cn(-c2csc(N3CCOCC3C3CC3)n2)c(Br)n1 (centres unmarked) [Example 14, 3-cyclopropyl-4-[4-(2,4-dibromoimidazol-1-yl)thiazol-2-yl]morpholine]	
1530 nM		Brc1cn(-c2csc(N3CCOC4CCCC43)n2)c(Br)n1 (centres unmarked) [Example 26, 4-[4-(2,4-dibromoimidazol-1-yl)thiazol-2-yl]-3,4a,5,6,7,7a-hexahydro-2H-cyclopenta[b][1,4]oxazine]	
	196 µL/min/mg	Clc1ncn(-c2csc(N3CCOCC3)n2)c1Br [Example 44, 4-[4-(5-bromo-4-chloro-imidazol-1-yl)thiazol-2-yl]morpholine]	
4470 nM		Brc1ncn(-c2csc(N3CCOC4(COC4)C3)n2)c1Br [Example 65, 8-(4-(4,5-dibromo-1H-imidazol-1-yl)thiazol-2-yl)-2,5-dioxa-8-azaspiro[3.5]nonane]	
1700 nM		FC(F)(F)C1CN(c2nc(-n3cc(Br)nc3Br)cs2)CCO1 (centres unmarked) [Example 25, 4-[4-(2,4-dibromoimidazol-1-yl)thiazol-2-yl]-2-(trifluoromethyl)morpholine]	
110 nM		Brc1cn(-c2csc(N3C[C@H]4CC[C@@H](C3)O4)n2)c(Br)n1 [Example 13, (1S,5R)-3-[4-(2,4-dibromoimidazol-1-yl)thiazol-2-yl]-8-oxa-3-azabicyclo[3.2.1]octane]	
		CC(C)(C)C1CN(c2nc(-n3cc(Br)nc3Br)cs2)CC(C(C)(C)C)O1 (centres unmarked) [Example 34, 2,6-ditert-butyl-4-[4-(2,4-dibromoimidazol-1-yl)thiazol-2-yl]morpholine]	eGFP IC50 [1]: inact.
3650 nM		Cc1ncn(-c2csc(N3CCOCC3)n2)c1C [Example 52, 4-[4-(4,5-dimethylimidazol-1-yl)thiazol-2-yl]morpholine]	

Structure (SMILES)	IC50 [1]	microsomal CLint at 2 μM (in vitro)	further results
CSc1nc(Br)cn1-c1csc(N2[C@@H]3CC[C@H]2COC3)n1 [Example 16, (1R,5S)-8-[4-(4-bromo-2-methylsulfanyl-imidazol-1-yl)thiazol-2-yl]-3-oxa-8-azabicyclo[3.2.1]octane]	140 nM		
Brc1cn(-c2csc(N3CCOC4(COC4)C3)n2)c(Br)n1 [Example 39, 8-[4-(2,4-dibromoimidazol-1-yl)thiazol-2-yl]-2,5-dioxa-8-azaspiro[3.5]nonane]		18 µL/min/mg	inhibition at 1 µM [1]: 34%
